One data set concerns RXR. As to the kind of experiment: RXR ligand displacement (radiolabeled 9-cis-retinoic acid). In kind it is binding. Particulars: displacement of radiolabeled 9-cis-retinoic acid. On the procedure:
(§1) FIG. 6A-6E. Activation and inhibition studies with different FKK compounds. (A) PXR activation, LS180 cells (upper), and PXR inhibition, LS180 cells, co-incubation with RIF (lower). (B) AhR activation, AZ-AHR cells (upper), and AhR inhibition, AZ-AHR cells, co-incubation with TCDD (lower). (C) GR activation, AZ-GR cells (upper), and VDR activation, IZ-VDRE cells (lower). (D) TR activation, PZ-GR cells (upper), and AR activation, AIZ-AR cells (lower). (E) Displacement of radiolabeled 9-cis-retinoic acid (RA) by FKK compounds.
(§2) All the synthesized compounds and intermediates were tested for their potential to activate PXR and/or AhR via luciferase assays. The PXR activation assays were performed by co-transfecting full-length expressing human PXR plasmid (91) and p3A4 luciferase reporter (92) in LS180 or Caco-2 cells. AhR activation conducted using stably co-transfected HepG2 reporter cells as previously described (93). […] With the exception of FKK6, there was no significant inhibition of TCDD-induced AhR activation. […] Independent verification of AhR activity of randomly selected compounds—FKK 5, 6 and 9—was performed in a separate laboratory (GHP). Nuclear receptor selectivity was assessed for FKK compounds for GR, ADR, TR and AR using cell-based luciferase assays previously described (93-102). […]

Data set [1] has as its system PXR target genes (CYP3A4, MDR1). The following applies: human.
Another data set addresses T1, AhR (Homo sapiens, UniProt P35869).
T1 sequence (P35869 11-848): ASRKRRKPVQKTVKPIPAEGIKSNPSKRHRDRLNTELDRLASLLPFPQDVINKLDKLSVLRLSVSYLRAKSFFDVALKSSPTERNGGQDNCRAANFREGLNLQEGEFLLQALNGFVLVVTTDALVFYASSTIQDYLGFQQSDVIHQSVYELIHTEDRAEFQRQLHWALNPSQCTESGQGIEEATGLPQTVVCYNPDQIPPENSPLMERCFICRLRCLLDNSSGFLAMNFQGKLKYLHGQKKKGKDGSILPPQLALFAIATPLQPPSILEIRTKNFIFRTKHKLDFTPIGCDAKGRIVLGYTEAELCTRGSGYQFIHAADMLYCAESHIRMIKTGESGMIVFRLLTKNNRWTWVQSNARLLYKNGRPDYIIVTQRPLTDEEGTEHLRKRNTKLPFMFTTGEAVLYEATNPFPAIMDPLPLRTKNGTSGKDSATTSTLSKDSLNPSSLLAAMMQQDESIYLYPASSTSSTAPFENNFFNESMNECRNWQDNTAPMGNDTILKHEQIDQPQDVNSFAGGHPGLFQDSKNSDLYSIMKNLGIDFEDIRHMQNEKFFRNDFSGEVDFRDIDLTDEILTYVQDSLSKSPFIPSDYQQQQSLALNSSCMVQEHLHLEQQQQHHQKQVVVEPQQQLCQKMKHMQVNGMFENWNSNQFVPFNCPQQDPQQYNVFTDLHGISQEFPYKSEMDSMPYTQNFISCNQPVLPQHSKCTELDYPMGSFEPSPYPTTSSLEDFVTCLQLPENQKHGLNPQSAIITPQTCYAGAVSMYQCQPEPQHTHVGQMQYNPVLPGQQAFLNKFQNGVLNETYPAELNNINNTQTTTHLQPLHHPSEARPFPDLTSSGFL
As to the kind of experiment: AhR activation, AZ-AHR (stably co-transfected HepG2) reporter cells. Further details: endogenous in cells; host or cells: AZ-AHR (HepG2). The following applies: to a much lesser extent than FKK 2 and 9; FIG. 6B. In kind it is cell-based. The method, then:
as §1
All the synthesized compounds and intermediates were tested for their potential to activate PXR and/or AhR via luciferase assays. The PXR activation assays were performed by co-transfecting full-length expressing human PXR plasmid (91) and p3A4 luciferase reporter (92) in LS180 or Caco-2 cells. AhR activation conducted using stably co-transfected HepG2 reporter cells as previously described (93). […] With the exception of FKK6, there was no significant inhibition of TCDD-induced AhR activation. […] Independent verification of AhR activity of randomly selected compounds—FKK 5, 6 and 9—was performed in a separate laboratory (GHP). Nuclear receptor selectivity was assessed for FKK compounds for GR, ADR, TR and AR using cell-based luciferase assays previously described (93-102). There was no observed biologically significant (>2-fold) induction of nuclear receptor activity (FIG. 6C). RXR ligand displacement is only significant for FKK1 and FKK8 (FIG. 6D).

The target in another data set is T2, PXR (Homo sapiens, UniProt O75469).
T2 sequence (O75469 1-434): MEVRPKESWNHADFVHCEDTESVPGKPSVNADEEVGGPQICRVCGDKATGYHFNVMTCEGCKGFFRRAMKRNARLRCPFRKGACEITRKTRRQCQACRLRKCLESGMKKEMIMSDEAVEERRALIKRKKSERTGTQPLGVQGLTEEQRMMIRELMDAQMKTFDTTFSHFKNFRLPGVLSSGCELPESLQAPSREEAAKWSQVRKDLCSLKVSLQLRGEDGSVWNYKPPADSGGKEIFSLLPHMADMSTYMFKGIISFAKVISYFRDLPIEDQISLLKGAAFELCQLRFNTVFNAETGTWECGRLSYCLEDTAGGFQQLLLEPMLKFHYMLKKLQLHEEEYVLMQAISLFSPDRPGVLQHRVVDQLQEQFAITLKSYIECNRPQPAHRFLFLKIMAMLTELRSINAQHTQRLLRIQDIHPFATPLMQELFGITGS
Nature of the data set: PXR inhibition, LS180 cells, co-incubation with RIF. The data set is classed as cell-based. Further details: co-transfecting full-length expressing human PXR plasmid (91) and p3A4 luciferase reporter (92) in LS180 or Caco-2 cells; expressed in transfected cells; host or cells: LS180. Particulars: FIG. 6A. On the procedure:
as §1, §2

`O=S(=O)(c1ccccc1)n1c(C(O)Cc2cc3ccccc3[nH]2)cc2ccccc21` (stereo not shown) [FKK8]: in the data set on RXR, the RXR ligand displacement result is on record as “significant”. For the same compound, the “CYP3A4 mRNA induction” value in data set [1] amounted to 1.5 fold. Further, the AhR activation profile entry on AhR was “variable degrees of dose-dependent AhR activation”. In addition, the “rifampicin-dependent PXR antagonism (inhibition)” value at PXR is “rifampicin-dependent PXR antagonism (inhibition)”.

Source of the values: patent publication US11724998B2, “PXR agonists and uses thereof for gut barrier dysfunction treatment and prevention” (Albert Einstein College of Medicine, priority 2017, dated 2023).
